Marks after values point to notes of the source that are not given here.
Legend:
[1] = system: P. falciparum Dd2 PfATP4^F156L strain; assay: 'compound 49' resistant parasite viability assay (LDH), Dd2 F156L; format: cell-based; settings: Plasmodium falciparum, DD2, 72 h, read-out: Dd2^F156L EC50 (SD)
Experimental: These assays were performed according to a previously described protocol.[16] Briefly, P. falciparum Dd2 strains treated with compound were incubated for 72 h at 37 °C. After incubating for 72 h, plates were frozen at −80 °C and then thawed at room temperature for at least 2 h. LDH activity, a surrogate for parasite growth was measured by the addition of the Malstst reagent mix, followed by incubation for 30 min and absorbance read using a ClarioStar Microplate reader at 650 nm. Values were normalized to DMSO control as a percentage and EC50 and dose response curves generated using GraphPad Prism.

[2] = system: P. falciparum (Pf) 3D7 parasites; assay: P. falciparum LDH viability assay; format: cell-based; settings: Plasmodium falciparum, 3D7, 72 h, LDH activity at 72 h; mean and SD of 3 independent experiments
Description: This assay is a platform assay conducted at the Walter and Eliza Hall Institute and uses a protocol previously decsribed.[30, 31]

[3] = system: P. knowlesi YH1 parasites; assay: P. knowlesi viability assay (SYBR green); format: cell-based; settings: Plasmodium knowlesi, 48 h, read-out: P. knowlesi EC50 (SD) YH1
Experimental: These assays were performed as previously described.[16] […] Parasites were synchronised with 5 % (w/v) sorbitol (Sigma‐Aldrich) treatments for ring stages. […] Parasites were grown in 1 % haematocrit, at 1 % and 2 % parasitaemia for P. falciparum and P. knowlesi respectively. […] Parasitaemia was measured using a SYBR DNA staining assay on a fluorometer.[33] After the incubation period, supernatants were removed and well contents were resuspended in PBS.

[4] = system: P. falciparum NF54 female gametes; assay: Dual gamete formation assay, female; format: cell-based; settings: Plasmodium falciparum; NF54 stage V gametocytes, 48 h incubation; αPfs25 antibody 24 h after induction
Experimental: PfATP4 inhibitors are known to block the transmission of parasites from humans to mosquitoes by interfering with both gametocytes and gamete development.[29] We evaluated a subset of truncated analogues against male and female gametes using a previously described assay. In this assay, stage V gametocytes are treated with compounds and then xanthurenic acid is added and a drop in temperature is used to simulate the mosquito gut environment to induce gametogenesis. After 30 min of compound treatment, male gamete viability is determined by microscopy measuring exflagellation, and after 24 h of compound treatment, female viability is measured using a female gamete specific αPfs25 antibody.
The compounds were evaluated as previously described.[34] Briefly, mature P. falciparum NF54 stage V gametocytes were exposed to compounds for 48 h at 37 °C in 384 well plates in gametocyte culture medium (RPMI 1640 supplemented with 25 mM HEPES, 50 μg mL^−1 hypoxanthine, 4.8 g L^−1 NaHCO3, 2 mM L‐glutamine, 5 % pooled type AB serum, 0.5 % Albumax II (Gibco)) under a 1 % O2/ 3 % CO2/ 96 % N2 environment. Gametogenesis was then triggered by the addition of 10 μL ookinete medium (gametocyte culture medium supplemented with 100 μM xanthurenic acid and 0.27 μg mL^−1 Cy3‐labelled anti‐Pfs25 antibody) to each well at room temperature. Plates were then cooled on a metal block at 4 °C for four min to ensure even cooling and then stabilised for a further 4 min at 28 °C. At 20 min post‐induction, male gametogenesis was recorded in each well by automated brightfield microscopy using a x4 objective lens and 1.5x magnifier (x6 effective magnification). Afterward, plates were incubated in the dark at room temperature for 24 h and then female gametogenesis was recorded in each well by automated fluorescence microscopy (anti‐Pfs25‐positive cells). […] All data was evaluated in comparison to the positive and negative controls to calculate percentage inhibition of male and female gametocytes, and dose response analysis and EC50 calculation were performed using GraphPad Prism.

[5] = eLogD shake-flask method; format: physicochemical
Description: Human liver microsome stability, rat hepatocyte stability, aqueous solubility and eLogD are platform assays conducted by TCG Lifesciences and undertaken using previously described protocols.[10]

[6] = system: P. falciparum CAM3.1; assay: Multidrug-resistant parasite viability assay (SYBR green), CAM3.1; format: cell-based; settings: Plasmodium falciparum, 72 h, read-out: multidrug resistant P. falciparum strains EC50 (SD) CAM3.1
Experimental: These assays were performed as previously described.[16] P. falciparum 3D7 parasites and resistant lines Dd2, W2mef, 7G8, and artemisinin‐resistant Cambodian isolate (Cam3.I (2539T)), and P. knowlesi YH1, were cultured in human O^+ erythrocytes (RBCs) (Australian Red Cross Blood Service), in RPMI‐HEPES culture medium (pH 7.4, 50 μg/mL hypoxanthine, 25 mM NaHCO3, 20 μg/mL gentamicin, 0.5 % Albumax II (GibcoBRL)) (Thermo Fisher Scientific) and maintained in an atmosphere of 1 % O2, 4 % CO2 and 95 % N2. Parasites were synchronised with 5 % (w/v) sorbitol (Sigma‐Aldrich) treatments for ring stages. Growth assays for measuring drug inhibition of in‐cycle, ring to schizont stage parasites have been described previously. Parasites were grown in 1 % haematocrit, at 1 % and 2 % parasitaemia for P. falciparum and P. knowlesi respectively. […] Parasitaemia was measured using a SYBR DNA staining assay on a fluorometer.[33] After the incubation period, supernatants were removed and well contents were resuspended in PBS.

Row | SMILES | EC50 [1] [nM] | EC50 [2] [nM] | EC50 [3] [nM] | EC50 [4] [nM] | eLogD [5] | EC50 [6] [nM]
1 | COc1cc(F)c2c(c1)NC(C)(C(=O)Nc1cncc(Cl)c1)N(C)C2=O (stereo not drawn) [Compound 36, N‐(5‐Chloropyridin‐3‐yl)‐5‐fluoro‐7‐methoxy‐2,3‐dimethyl‐4‐oxo‐1,2,3,4‐tetrahydroquinazoline‐2‐carboxamide] | 47 | 21 | 33 | 210 | 2.6^[d] | 14
2 | CN1C(=O)c2ccc(-n3cccn3)cc2NC1(C)C(=O)Nc1cncc(Cl)c1 (stereo not drawn) [Compound 33, N‐(5‐Chloropyridin‐3‐yl)‐2,3‐dimethyl‐4‐oxo‐7‐(1H‐pyrazol‐1‐yl)‐1,2,3,4‐tetrahydroquinazoline‐2‐carboxamide] | 125 | 65 | 101 | 1000 | 3.2^[d] | 60
3 | CN1C(=O)c2ccc(Cl)cc2NC1(C)C(=O)Nc1cncc(Cl)c1 (stereo not drawn) [Compound 14, 7‐Chloro‐N‐(5‐chloro‐3‐pyridyl)‐2,3‐dimethyl‐4‐oxo‐1H‐quinazoline‐2‐carboxamide] | 89 | 33 | 58 | 120 | 3.2^[d] | 21

From publication PMC11648822, “Lactam Truncation Yields a Dihydroquinazolinone Scaffold with Potent Antimalarial Activity that Targets PfATP4” (Chemmedchem, 2024)
